Experimental data published in patent US9000191B2, “Serotonin reuptake inhibitors” (Theravance Biopharma R&D IP, LLC, priority 2010, dated 2015).

Target: T1, hSERT (Homo sapiens, UniProt P31645)
T1 construct: expressed in transfected cells; host or cells: HEK293 (stably transfected, G418 selection)
Experiment: hSERT neurotransmitter uptake assay
Assay type: cell-based
Conditions: serotonin reuptake inhibition, HEK293-hSERT cells; read-out: SERT pIC50 (converted)
Procedure: Neurotransmitter uptake assays were used to measure inhibition of ^3H-serotonin (^3H-5-HT) uptake into cells expressing hSERT in order to determine the pIC50 values of test compounds at the transporter, similar to the procedures described in Tsuruda et al. (2010) Journal of Pharmacological and Toxicological Methods 61(2):192-204.
HEK293 cells stably-transfected with human recombinant SERT (HEK293-hSERT) were grown in DMEM medium supplemented with 10% dialyzed fetal bovine serum, 100 μg/ml penicillin, 100 μg/ml streptomycin, 2 mM L-glutamine, and 250 μg/ml of the aminoglycoside antibiotic G418. Cells were incubated in a 5% CO2, humidified incubator at 37° C.
The neurotransmitter uptake assay was performed in a 96-well assay plate in a total volume of 100 μL assay buffer containing HEK293-hSERT cells (7500-10,000 cells/well; plated ˜2 hours prior to assay initiation. Neurotransmitter Transporter Uptake Assay dye (0.5 μM), and eleven different concentrations of compound ranging from 10 μM to […] was used. Non-specific uptake was determined in the presence of indatraline (2.5 μM). The final assay buffer was 12.5 mM Tris-HCl, 5 mM HEPES, 3 mM NaHCO3, 0.3 mM KH2PO4, 0.25 mM Na2HPO4, 130 mM NaCl, 5 mM KCl, 1 mM CaCl2, 0.4 mM MgCl2, 0.3 mM MgSO4, 4 mM D-glucose, 0.025% BSA, 0.1 mM ascorbic acid, pH 7.4.
In pre-incubation studies, test compound was added to cells for 30 minutes at 37° C. prior to the addition of fluorescent substrate. For determination of inhibitory potency, a 10-30 minute endpoint substrate accumulation was determined by fluorescence spectroscopy using a Safire (Tecan Group Ltd., Minnendorf, Switzerland) and analysis was performed as described in Tsuruda et al., supra. For real-time measurements, compounds were either preincubated (as above) or mixed with substrate prior to addition, and kinetic measurements, relative fluorescence units (RFU integrated over 0.5 ms), were made using a cycle time of 1 min.

T1 sequence (P31645 whole entry): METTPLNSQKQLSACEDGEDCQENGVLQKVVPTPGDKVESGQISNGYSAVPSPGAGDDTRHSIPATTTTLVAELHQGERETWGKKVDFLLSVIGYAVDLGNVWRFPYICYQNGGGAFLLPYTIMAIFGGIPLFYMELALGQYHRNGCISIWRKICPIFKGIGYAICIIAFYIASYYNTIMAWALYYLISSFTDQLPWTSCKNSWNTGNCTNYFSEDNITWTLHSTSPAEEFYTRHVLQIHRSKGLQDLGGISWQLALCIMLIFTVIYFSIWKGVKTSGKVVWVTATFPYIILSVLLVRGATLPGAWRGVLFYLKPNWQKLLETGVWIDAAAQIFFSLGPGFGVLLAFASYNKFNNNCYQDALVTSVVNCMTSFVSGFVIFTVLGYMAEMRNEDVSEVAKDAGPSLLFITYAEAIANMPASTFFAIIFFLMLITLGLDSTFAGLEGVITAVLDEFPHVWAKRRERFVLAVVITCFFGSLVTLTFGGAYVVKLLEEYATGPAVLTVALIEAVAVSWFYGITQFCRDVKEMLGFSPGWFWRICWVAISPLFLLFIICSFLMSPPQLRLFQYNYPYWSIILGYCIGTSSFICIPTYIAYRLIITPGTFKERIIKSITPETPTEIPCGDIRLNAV

Row | Structure (SMILES) | IC50 [nM]
1 | CS(=O)(=O)C[C@@H](Oc1ccc(C(F)(F)F)c(C#N)c1)[C@H]1CCNC1 [Example 2-20, 5-((S)-2-Methanesulfonyl-1-(S)-pyrrolidin-3-ylethoxy)-2-trifluoromethyl-benzonitrile] | ≤ 100
2 | CS(=O)(=O)C[C@H](Oc1ccc(OC(F)(F)F)cc1)[C@H]1CCNC1 [Example 2-10, (S)-3-[(R)-2-Methanesulfonyl-1-(4-trifluoromethoxyphenoxy)ethyl]pyrrolidine] | ≤ 100
3 | CC(=O)NCCS(=O)(=O)C[C@@H](Oc1ccc(C(F)(F)F)cc1)[C@H]1CCNC1 [Example 2-14, N-{2-[(S)-2-(S)-Pyrrolidin-3-yl-2-(4-trifluoromethylphenoxy)ethanesulfonyl]-ethyl}-acetamide] | ≤ 10
4 | CS(=O)(=O)C[C@H](Oc1ccc(Cl)cc1)[C@H]1CCNC1 [Example 2-4, (S)-3-[(R)-1-(4-Chlorophenoxy)-2-methanesulfonylethyl]pyrrolidine] | ≤ 100
5 | CS(=O)(=O)C[C@@H](Oc1ccc([N+](=O)[O-])cc1)[C@H]1CCNC1 [Example 2-5, (S)-3-[(S)-2-Methanesulfonyl-1-(4-nitrophenoxy)ethyl]pyrrolidine] | ≤ 100
6 | CS(=O)(=O)C[C@@H](Oc1ccc(Cl)c(C#N)c1)[C@@H]1CCNC1 (stereo in doubt) [Example 2-23, 2-Chloro-5-((R)-2-methanesulfonyl-1-(S)-pyrrolidin-3-ylethoxy)benzonitrile] | ≤ 100
7 | O=S(=O)(C[C@@H](Oc1ccc(C(F)(F)F)cc1)[C@H]1CCNC1)c1ccccc1 [Example 2-17, (S)-3-[(S)-2-Benzenesulfonyl-1-(4-trifluoromethylphenoxy)ethyl]pyrrolidine] | ≤ 10
8 | CC(=O)Nc1ccc(S(=O)(=O)C[C@@H](Oc2ccc(C(F)(F)F)cc2)[C@H]2CCNC2)cc1 [Example 2-18, N-{4-[(S)-2-(S)-Pyrrolidin-3-yl-2-(4-trifluoromethylphenoxy)ethanesulfonyl]-phenyl}-acetamide] | ≤ 10
9 | CS(=O)(=O)C[C@@H](Oc1ccc(C(F)(F)F)cc1)[C@@H]1CCNC1 [Example 2-3, (R)-3-[(S)-2-Methanesulfonyl-1-(4-trifluoromethylphenoxy)ethyl]pyrrolidine] | ≤ 10
10 | CS(=O)(=O)C[C@H](Oc1ccc(C(F)(F)F)cc1)[C@@H]1CCNC1 [Example 2-2, (R)-3-[(R)-2-Methanesulfonyl-1-(4-trifluoromethylphenoxy)ethyl]pyrrolidine] | ≤ 10
11 | CS(=O)(=O)C[C@H](Oc1ccc(C(F)(F)F)c(C#N)c1)[C@H]1CCNC1 (stereo in doubt) [Example 2-21, 5-((S)-2-Methanesulfonyl-1-(R)-pyrrolidin-3-ylethoxy)-2-trifluoromethyl-benzonitrile] | ≤ 10

Results, then the molecule that gave them:

Row | IC50 [nM] | Structure (SMILES)
12 | ≤ 10 | Cc1cc(Cl)ccc1O[C@@H](CS(C)(=O)=O)[C@H]1CCNC1 [Example 2-28, (S)-3-[(R)-1-(4-Chloro-2-methylphenoxy)-2-methanesulfonylethyl]pyrrolidine]
13 | ≤ 100 | COc1cc([N+](=O)[O-])ccc1O[C@@H](CS(C)(=O)=O)[C@H]1CCNC1 [Example 2-25, (S)-3-[(R)-2-Methanesulfonyl-1-(2-methoxy-4-nitrophenoxy)ethyl]pyrrolidine]
14 | ≤ 100 | CS(=O)(=O)CCC(Oc1ccc(C(F)(F)F)cc1)[C@@H]1CCNC1 (single isomer, unassigned) [Example 8-1]
15 | ≤ 100 | CS(=O)(=O)C[C@@H](Oc1ccc(C(F)(F)F)nc1)[C@@H]1CCNC1 (stereo in doubt) [Example 6-1, 5-((R)-2-Methanesulfonyl-1-(S)-pyrrolidin-3-ylethoxy)-2-trifluoromethylpyridine]
16 | ≤ 100 | COc1cc([N+](=O)[O-])ccc1O[C@@H](CS(C)(=O)=O)[C@@H]1CCNC1 [Example 2-27, (R)-3-[(R)-2-Methanesulfonyl-1-(2-methoxy-4-nitrophenoxy)ethyl]pyrrolidine]
17 | ≤ 10 | O=S(=O)(CCC(Oc1ccc(C(F)(F)F)cc1)[C@H]1CCNC1)c1ccccc1 (stereo partly drawn) [Example 7, (S)-3-[3-Benzenesulfonyl-1-(4-trifluoromethylphenoxy)propyl]pyrrolidine]
